{"source": "patent US20070213400A1", "about": "“ALCOHOL-METABOLISM ENHANCING COMPOSITION AND INGESTA CONTAINING THE SAME” (Taiyokagaku Co., Ltd., priority 2004, published 2007)", "key": {"[1]": {"test": "Ethanol concentration in the blood after ingestion of ethanol (ADH method)", "format": "in vivo, CDF1 male mice", "conditions": "mice; for Ethanol concentration in the blood, Mean: ethanol 3.0 g/kg oral, theanine 100 mg/kg", "description": "(§1) Ethanol was ingested to CDF1 male mice 3.0 g/weight by kg by oral administration. Theanine was ingested to the abdominal cavity of each mouse once before ingestion of ethanol. Concentration of ethanol in the blood and concentration of lipid peroxide in the liver were measured. GSH concentration was also measured. Furthermore, alcohol dehydrogenase, aldehyde dehydrogenase and enzyme activity of […] were also measured.\nThe concentration of ethanol in the blood was measured by the following ADH method. 0.1 mL of blood was added to 0.8 mL of 0.33 N perchloric acid. After execution of a vortex process, a centrifugal process was carried out under the condition of 1200 g for 5 minutes. 0.1 mL of supernatant was mixed with 0.1 mL of buffer liquid containing […] of sodium phosphate/semicarbazide buffer liquid (pH8.7) and 0.48 mM of NAD. 0.02 mL of ADH (≧32 IU/mL) was further added to the mixture and incubated at 37° C. for 25 minutes. Thereafter, absorbance was measured at 340 nm. An unknown sample concentration was calculated by the comparison of ethanol concentration with known standard sample data."}, "[2]": {"system": "lipid peroxide in the liver", "test": "Lipid peroxide concentration in the liver after ingestion of ethanol (TBA fluorometry)", "format": "in vivo, CDF1 male mice", "conditions": "mouse liver; for Lipid peroxide concentration, Mean: ethanol 3.0 g/kg oral, theanine", "description": "as §1\n(§2) The lipid peroxide concentration in the liver was measured in the following method (TBA fluorometry). 0.1 mL of liver sample (2% homogenate in physiological salt solution) was added with 0.5 mL of 3% SDS, 1.5 mL of 2.0 M acetic acid buffer liquid (pH3.6), 1.5 mL of 0.8% thiobarbituric acid and 0.4 mL of purified water so that a total amount was 4.0 mL. In a standard sample, 20 μL of 50 μmol/L malondialdehyde (MDA) was added instead of the above liver sample and 0.48 purified water was added. The solution was heat-treated in boiling water for 75 minutes and thereafter, cooled for 5 minutes. 1.0 mL of 0.2 N chloride and 5.0 mL of n-butanol were mixed to the cooled substance and thereafter, shaken for 30 seconds. 1200 g of substance was centrifugally processed for 15 minutes. Supernatant was sampled and fluorometry (excitation wavelength: 515 nm; and fluorescent wavelength: 553 nm) was carried out. The unknown sample was calculated using calibration curve."}, "[3]": {"system": "GSH concentration in the liver", "test": "GSH concentration in the liver after ingestion of ethanol", "format": "in vivo, CDF1 male mice", "conditions": "mouse liver, % of normal state", "description": "as §1\n(§3) The GSH concentration in the liver was measured by the following method (HiSSIN-Hilf). 5% homogenate of the liver or heart was prepared in a 0.1 M sodium phosphate-0.005 M EDTA buffer liquid (pH 8.0) using a potter type Teflon homogenizer while being iced. 0.25 mL of 25% metaphosphoric acid was added to 0.75 mL of homogenate liquid and mixed well. 10000 g of substance was centrifugally processed for 30 minutes. Thereafter, supernatant was sampled and diluted by 50 times with 0.1 M sodium phosphate-0.005 M EDTA buffer liquid (pH 8.0). To 0.20 mL of the diluted liquid was added 3.6 mL of 0.1 M sodium phosphate-0.005 M EDTA buffer liquid (pH 8.0) and 0.20 mL of 0.1% o-phthalaldehyde (OPT) -methanol liquid. The mixture was left at a room temperature for 5 minutes and thereafter, the fluorometry (excitation wavelength: 350 nm; and fluorescent wavelength: 420 nm) was carried out. The unknown sample was calculated using calibration curve."}, "alcohol dehydrogenase": {"system": "alcohol dehydrogenase", "test": "Liver alcohol dehydrogenase (ADH) activity after ingestion of ethanol", "format": "in vivo, CDF1 male mice", "conditions": "mouse liver, 3 hours after ingestion of ethanol", "description": "as §1"}, "cytochrome P2E1 (CYP2E1)": {"system": "cytochrome P2E1 (CYP2E1)", "test": "Liver CYP2E1 enzyme activity after ingestion of ethanol (HPLC, para-nitrophenol)", "format": "in vivo, CDF1 male mice", "conditions": "mouse liver, 3 hours after ingestion of ethanol", "description": "as §1"}, "aldehyde dehydrogenase": {"system": "aldehyde dehydrogenase", "test": "Liver aldehyde dehydrogenase (ALDH) activity after ingestion of ethanol", "format": "in vivo, CDF1 male mice", "conditions": "mouse liver, 3 hours after ingestion of ethanol", "description": "as §1"}, "GPT": {"system": "GPT", "test": "Chronic administration, alcoholic liver injury: GPT in the blood", "format": "in vivo, CDF1 male mice", "conditions": "mice, ethanol 1.0 or 2.0 g/kg oral twice a day, theanine 100 mg/kg abdominal cavity, ten days (FIG. 6)", "description": "(§4) Ethanol was ingested to CDF1 male mice (5 weeks old) 1.0 g/kg-weight or 2.0 g/kg-weight by oral administration twice in a day. Theanine was ingested to the abdominal cavity of each mouse 100 mg/kg-weight. After ingestion of ethanol and theanine for ten days, concentrations of GOT, GPT, and γ-GTP in the blood were measured. Concentrations of lipid peroxide and GSH in the liver were measured.\n(§5) The concentrations of GOT and […] in the blood were measured by using the […] C-test WAKO (WAKO Pure Chemical Industries, Ltd). The concentration of γ-GTP was measured by using the γ-GTP C-test WAKO (WAKO Pure Chemical Industries, Ltd) Concentrations of lipid peroxide and GSH in the liver were measured by the method written in Embodiment 1.\nThe concentration of GPT was measured by the following method. 0.02 mL of serum was added to 0.5 mL of GPT-measuring-substrate-buffer and incubated at 37° C. for 5 minutes. Thereafter, 0.5 mL of coloring reagent was added, incubated at 37° C. for 20 minutes. 2.0 mL of stop solution was added to the mixture. Thereafter absorbance was measured at 555 nm. GPT activity (Karmen unit) in the blood was calculated by the comparison of GPT activity with known standard sample data plot."}, "GSH in the liver": {"system": "GSH in the liver", "test": "Chronic administration, alcoholic liver injury: GSH in the liver", "format": "in vivo, CDF1 male mice", "conditions": "mice, ethanol 1.0 or 2.0 g/kg oral twice a day, theanine 100 mg/kg abdominal cavity, ten days (FIG. 7)", "description": "as §3"}, "mice": {"system": "mice", "format": "in vivo", "conditions": "oral administration of theanine by 5 g/kg", "excerpt": "Theanine used in the invention has a high security. […] Furthermore, theanine is known as a principal component of deliciousness of tea and used as a food additive for use as gustatory. An amount of theanine to be added is not limited under the Food Sanitation Law. Moreover, differing from conventional medical substances, theanine has no adverse side effect. Consequently, the composition of the invention can be used as a safe and effective alcohol-metabolism enhancing composition."}, "[4]": {"system": "lipid peroxide in the liver", "test": "Chronic administration, alcoholic liver injury: lipid peroxide in the liver", "format": "in vivo, CDF1 male mice", "conditions": "mice, ethanol 1.0 or 2.0 g/kg oral twice a day, theanine 100 mg/kg abdominal cavity, ten days", "description": "as §2, with “1.0 mL of 0.2 N chloride and 5.0 mL of n-butanol were mixed to the cooled substance and thereafter, shaken for 30 seconds. 1200 g of substance was centrifugally processed for 15 minutes. Supernatant was sampled and fluorometry (excitation wavelength: 515 nm; and fluorescent wavelength: 553 nm) was carried out.” left out\nas §4, with “Theanine was ingested to the abdominal cavity of each mouse 100 mg/kg-weight.” left out\nas §5"}}}
{"compound": "CCO", "note": "[Ethanol]", "values": [{"measurement": "Ethanol concentration in the blood, Mean", "setting": "[1]; time 0 h", "result": 0, "unit": "mg/mL"}, {"measurement": "Ethanol concentration in the blood, Mean", "setting": "[1]; time 0.5 h", "result": 0.498, "unit": "mg/mL"}, {"measurement": "Ethanol concentration in the blood, Mean", "setting": "[1]; time 1 h", "result": 0.108, "unit": "mg/mL"}, {"measurement": "Ethanol concentration in the blood, Mean", "setting": "[1]; time 3 h", "result": 0.022, "unit": "mg/mL"}, {"measurement": "Lipid peroxide concentration, Mean", "setting": "[2]; time 0 h", "result": 0.617, "unit": "mg/mL"}, {"measurement": "Lipid peroxide concentration, Mean", "setting": "[2]; time 0.5 h", "result": 0.573, "unit": "mg/mL"}, {"measurement": "Lipid peroxide concentration, Mean", "setting": "[2]; time 1 h", "result": 0.565, "unit": "mg/mL"}, {"measurement": "Lipid peroxide concentration, Mean", "setting": "[2]; time 2 h", "result": 0.580, "unit": "mg/mL"}, {"measurement": "Lipid peroxide concentration, Mean", "setting": "[2]; time 3 h", "result": 1.036, "unit": "mg/mL"}, {"measurement": "Lipid peroxide concentration, Mean", "setting": "[2]; time 5 h", "result": 0.568, "unit": "mg/mL"}, {"measurement": "lipid peroxide", "setting": "[2]; only ethanol ingested, peak value (3 h in Table 2)", "result": 1.036, "unit": "u mol/g protein"}, {"measurement": "Lipid peroxide concentration (%) of the value in the normal state", "setting": "[2]; time 0 h", "result": 100, "unit": "%"}, {"measurement": "Lipid peroxide concentration (%) of the value in the normal state", "setting": "[2]; time 0.5 h", "result": 93, "unit": "%"}, {"measurement": "Lipid peroxide concentration (%) of the value in the normal state", "setting": "[2]; time 1 h", "result": 92, "unit": "%"}, {"measurement": "Lipid peroxide concentration (%) of the value in the normal state", "setting": "[2]; time 2 h", "result": 94, "unit": "%"}, {"measurement": "Lipid peroxide concentration (%) of the value in the normal state", "setting": "[2]; time 3 h", "result": 168, "unit": "%"}, {"measurement": "Lipid peroxide concentration (%) of the value in the normal state", "setting": "[2]; time 5 h", "result": 92, "unit": "%"}, {"measurement": "GSH concentration (%), Mean", "setting": "[3]; time 0 h", "result": 100.00, "unit": "%"}, {"measurement": "GSH concentration (%), Mean", "setting": "[3]; time 0.5 h", "result": 79.84, "unit": "%"}, {"measurement": "GSH concentration (%), Mean", "setting": "[3]; time 1 h", "result": 78.83, "unit": "%"}, {"measurement": "GSH concentration (%), Mean", "setting": "[3]; time 2 h", "result": 81.57, "unit": "%"}, {"measurement": "GSH concentration (%), Mean", "setting": "[3]; time 3 h", "result": 75.96, "unit": "%"}, {"measurement": "GSH concentration (%), Mean", "setting": "[3]; time 5 h", "result": 65.50, "unit": "%"}, {"measurement": "GSH concentration (%), Mean", "setting": "[3]; time 5 h, listed as ethanol", "result": 65.5, "unit": "%"}, {"measurement": "ADH activity as compared with control (normal state)", "setting": "alcohol dehydrogenase", "result": "about 123%"}, {"measurement": "ADH activity, Mean", "setting": "alcohol dehydrogenase", "result": 9.13, "unit": "μmol/min · mg protein"}, {"measurement": "CYP2E1 activity, Mean", "setting": "cytochrome P2E1 (CYP2E1)", "result": 20.4, "unit": "nmol/mg protein/min"}, {"measurement": "ALDH activity as compared with control", "setting": "aldehyde dehydrogenase", "result": "about 63.5%"}, {"measurement": "ALDH activity, Mean", "setting": "aldehyde dehydrogenase", "result": 5.80, "unit": "μmol/min · mg protein"}, {"measurement": "GPT concentrations in the blood", "setting": "GPT", "result": "increased"}, {"measurement": "GSH concentrations in the liver", "setting": "GSH in the liver", "result": "decreased"}]}
{"compound": "CCNC(=O)CC[C@H](N)C(=O)O", "note": "[Theanine, theanine]", "values": [{"measurement": "AUC0-3 hr of blood ethanol reduced by joint use of theanine as compared with only ethanol", "setting": "[1]; ethanol 3.0 g/kg, theanine 100 mg/kg 30 minutes after ethanol", "result": 76, "unit": "%"}, {"measurement": "Mortality in acute toxicity test", "setting": "mice", "result": "no mice died"}, {"measurement": "GPT concentrations in the blood", "setting": "GPT", "result": "increase of the GPT concentrations could be reduced"}, {"measurement": "lipid peroxide in the liver", "setting": "[4]", "result": "increase of lipid peroxide in the liver would be reduced"}, {"measurement": "GSH concentrations in the liver", "setting": "GSH in the liver", "result": "decrease of the GSH could be reduced"}]}
